Data published in US6737058B2, “Methods for inhibiting endothelial cell and fibrinogen mediated inflammation using fibrinogen specific antibodies” (The Scripps Research Institute, priority 1992, dated 2004).

Key:
HUVEC [1] = test: Iodinated D30 binding to HUVEC monolayers and its competition; set-up: species or system human; conditions: 50 fold molar excess of cold fibrinogen; myoglobin as nonspecific protein
Procedure: Binding assays described above in Example 3A2) were also performed with the fibrinogen homolog, D30, to determine if that region of fibrinogen also immunoreacted with HUVEC. Since D30 was known to bind to leukocytes via the Mac-1 receptor as described by Altieri et al., J. Biol. Chem., 265:12119-12122 (1990), these experiments were performed to determine if regions of fibrinogen mediating the binding of leukocytes to HUVEC are contained within the D30 fragment. For this analysis, the D30 fragment of fibrinogen prepared in Example 1B was labelled with ^125I as described for labelling of fibrinogen above. Iodinated D30 was admixed to HUVEC monolayers at a concentration of 10 μg/ml to form a binding complex. After washing the cells to remove the unbound D30 as described in Example 3A2) above, the cells were solubilized and the amount of bound radioactivity was determined. The binding of D30 to HUVEC was maximal at 120 minutes of the maintenance period with approximately 60,000 cpm.

HUVEC [2] = test: Fibrinogen-mediated adhesion of 51Cr-labelled THP-1 cells to HUVEC; assay type: cell-based, human
Procedure: For these assays, HUVEC were plated in the medium described in Example 2A at a density of approximately 1-5×10^4 cells/well into flat-bottom microtiter wells of a 96 well tissue-culture treated plate. The cells were then washed in serum-free RPMI 1640 and further maintained with ^51-Chromium-labelled (^51Cr) THP-1 cell suspensions previously exposed to different concentrations of unlabelled fibrinogen or left untreated. To label THP-1 cells, serum-free suspensions of the cells at a concentration of 1×10^7 cells/ml were labelled with 0.5 mCi ^51Cr (Na2CrO4 having a specific activity of 487.4 mCi/mg, NEN Du Pont de Nemours) for 2 hours at 37° C. with incorporation of an average of 12 to 20 cpm/THP-1 cell. The labelled cells were then washed twice at room temperature with serum-free RPMI 1640 and resuspended in the same medium at a concentration of 5 ×10^5 cells/ml. The labelled cells were used in the assays within 2 hours from the labelling procedure. For the assays, the cells were pre-stimulated with 1 μM N-FMLP in the presence of 1 mM CaCl2 and […] PPack. The resultant N-FMLP-stimulated THP-1 cell suspensions were then separately admixed with the following: 1) Medium without any admixed fibrinogen as a control; 2) Fibrinogen at 1.2 mg/ml and at 2.5 mg/ml concentrations; and 3) Normal human plasma (NHP) diluted 1:2 and 1:50. Purified fibrinogen was prepared as described in Example 1. Fibrinogen was present in undiluted normal human plasma at the concentration of approximately 1-3 mg/ml. The resultant admixtures were maintained for 20 minutes at 22° C. to allow for the binding of fibrinogen, either purified or present in NHP, to the Mac-1 receptor on the surface of the THP-1 cells.
The resultant fibrinogen-bound THP-1 cells were then admixed to the washed immobilized HUVEC described above to allow for the binding of a non-Mac-1 receptor binding site on fibrinogen to the RGD-independent fibrinogen receptor on the surface of HUVEC, thereby resulting in the binding of THP-1 cells to HUVEC via a fibrinogen bridge. The admixtures were maintained at 37° C. to allow for adhesion. At selected time intervals between 1 to 60 minutes, the HUVEC monolayers were gently washed five times with serum-free RPMI 1640 to remove nonadherent or loosely adherent THP-1 cells to which fibrinogen was initially immobilized. The adherent cells were then solubilized in 10% SDS and the cell lysate was quantitated in a beta scintillation counter. Spontaneous ^51Cr release from THP-1 cells was always less than 2% during the adhesion assay. The number of specifically attached THP-1 cells was determined by dividing the cpm harvested by the cpm/cell.
To determine the effects that temperature has on the ability of fibrinogen to mediate the binding of ^51Cr-labelled THP-1 cells to monolayers of HUVEC, cell adhesion assays as described in Example 3B1) were performed at 22° C. and at 37° C. over the course of one hour. The assays were performed in an identical manner as described above with the exception that 500 μg/ml of fibrinogen was used instead of […]. The maximum binding of THP-1 cells to HUVEC at 22° C. was 7500 cells after 40 minutes. At 60 minutes, the binding decreased to 5000 cells. The data is significant in comparison to the approximately 2000 THP-1 cells attached in the absence of fibrinogen. However, at 37° C., approximately 20,000 THP-1 cells attached to HUVEC after 40 minutes against a background binding of approximately 5000 cells in the absence of fibrinogen. The binding of ^51Cr-labelled THP-1 cells to HUVEC, thus, is maximized at the physiologic temperature of 37° C. with physiologic concentrations of fibrinogen.

HUVEC [3] = test: Adhesion of terminally-differentiated 51Cr-labeled HL-60 cells to resting HUVEC with plasma adhesive proteins; assay type: cell-based, human; conditions: 150 μ/ml protein, fMLP 10 μM, 30 min at 22° C.
Procedure: The effect of fibrinogen, vitronectin, and fibronectin on the interaction of terminally-differentiated HL-60 and monocytic THP-1 cells with HUVEC was determined as described in Languino, supra. Briefly, serum-free suspensions of HL-60 or THP-1 cells were labeled with ^51Cr as described in Example 81A to a final incorporation of 0.2-4 cpm/cell. After washes in PBS, pH 7.2, aliquots of the HL-60 cells were resuspended in serum-free RPMI 1640 at 1.5×10^6/ml and stimulated with 10 μM of the chemoattractant formyl-methionyl-leucyl-phenylalanine (fMLP, Sigma, St. Louis, Mo.) and equilibrated with 150 μ/ml fibrinogen, vitronectin, or fibronectin in the presence of 1 mM CaCl2 for 20 min at 22° C. Equilibrated HL-60 were added to resting HUVEC monolayers that had been previously incubated with fresh complete culture medium 12 hours prior to the experiment and incubated for an additional 30 min at 22° C., washed,solubilized in 10-20% SDS, and associated radioactivity determined in a scintillation β-counter. The number of attached cells was quantitated by diving the cpm harvested by the cpm/cell. Under these experimental conditions, there was no aggregation of the various leukocyte subpopulations in the presence of the different plasma adhesive proteins, nor disruption of the HUVEC monolayers at any time interval tested, as judged by routine microscopic examination of the adhesion field. Data are the mean ± S.D. of triplicates from a representative experiment.
Experimental conditions were the same as described in Example 9C1 except that the ^51Cr-labeled HL-60 cells were equilibrated with 40 μg/ml vitronectin or control protein transferrin and added to resting HUVEC for increasing time intervals between 10 and 60 minutes at 22° C. before measurement of leukocyte adhesion.
Experimental conditions were the same as described in Example 9C1 except that the ^51Cr-labeled HL-60 cells were equilibrated with several concentrations of vitronectin ranging from 1.84 to 150 μg/ml and prior to incubation to resting HUVEC.

Question: Which “competition of D30 binding to HUVEC” value (HUVEC [1]) does the source give for “fibrinogen: fibrinogen isolated from fresh plasma by cold ethanol fractionation, fibronectin-free” here?
Answer: specifically competed

Question: What about the “THP-1 cells bound to HUVEC, maximum” value (HUVEC [2]; 500 μg/ml fibrinogen, 22° C., 40 minutes) of the same substance?
Answer: 7500 cells

Question: And the “THP-1 cells bound to HUVEC” value (HUVEC [2]; 500 μg/ml fibrinogen, 22° C., 60 minutes)?
Answer: 5000 cells

Question: What about the “THP-1 cells attached to HUVEC” value (HUVEC [2]; 500 μg/ml fibrinogen, 37° C., 40 minutes) of the same substance?
Answer: approximately 20,000 cells

Question: What about the “THP-1 cells attached to HUVEC (parallel control), maximal” value (HUVEC [2]; 500 μg/ml fibrinogen, 60 minutes, non-saturable) of the same substance?
Answer: approximately 25,000 cells

Question: What about the “THP-1 cells attached to HUVEC, maximum” value (HUVEC [2]; 1.2 mg/ml fibrinogen, 37° C., 60 minute time course) of the same substance?
Answer: 10,000 cells

Question: And the “THP-1 cells attached to HUVEC” value (HUVEC [2]; 2.5 mg/ml fibrinogen, 60 minutes, not saturated)?
Answer: approximately 18,000 cells

Question: And the “adhesion of differentiated HL-60 cells to HUVEC relative to cells not equilibrated with an adhesive protein” value (HUVEC [3])?
Answer: two to three-fold higher
